In patent US20220152015A1, “NEDOCROMIL SODIUM TO PREVENT, LIMIT ONSET, AND /OR TREAT PANCREATIC CANCER” (priority 2020, published 2022):

Experiments:
[1] = molecular target: T1, human GPR35 (Homo sapiens, UniProt Q9HC97); assay: PathHunter human GPR35a-β-arrestin-2 interaction assay in CHO-K1 cells; type: cell-based
T1 construct: expressed in transfected cells; host or cells: CHO-K1

[2] = tested on: ion channels present in the intestinal cell line HT29; assay: Whole-cell patch-clamp recordings of ion channels; type: cell-based; conditions: HT29 cells
Excerpt: Summary—Whole-cell patch-clamp recordings were used to test the effects of The Compound on ion channels.

[3] = tested on: K-ras^G12Dp53^−/− tumors; assay: Surgically implanted PDAC tumors in tumor-bearing C57BL/6 mice; type: in vivo
Description: (§1) To determine whether targeting mast cell function has a therapeutic effect in PDAC, we injected tumor-bearing C57BL/6 mice Nedocromil sodium, a mast cell stabilizer. […] Tumor measurement was performed at the end time point (day 50) after treatment. […] Similarly, mast cell degranulation in the tumor microenvironment was inhibited in the nedocromil sodium-treated group compared with in the saline-treated control group.

[4] = tested on: Panc-02 tumor cells; assay: Panc-02 tumor growth in mice; type: in vivo; conditions: treated mice vs. saline control at day 21 after treatment, P<0.001
Excerpt: as §1, with “Tumor measurement was performed at the end time point (day 50) after treatment.” left out

[5] = tested on: cancerous tumor; assay: Dog tumor case, topical application; type: in vivo
Description: Summary—A female dog was given the diagnosis of a cancerous tumor (without confirmatory histology due to lack of ability to aspirate the tumor due to the hardness of the mass) in June of 2020. At the time of diagnosis the tumor located on […] right shoulder was measured at 2 inches by 2 inches with a depth of 0.5 inches. Other than supportive care (ketogenic diet to delay tumor progression, and gabapentin for neuropathic pain) no treatment was provided by the owners, as the cost and lack of clear benefit to conventional therapy (biopsy, chemotherapy, and eventual resection) was not deemed to be appropriate for this dog. […] On December 23rd, 2020 the first application of Nedocromil sodium compound was administered to the dog via the topical route. The dog's tumor area was shaved to improve the absorption of the compound into the skin. On Jul. 16, 2021 (tumor size of 1.5×1×0.5 inches), a second application of Nedocromil Sodium was applied using the same dosing strategy in attempt to eradicate the tumor entirely.

[6] = tested on: stage 4 transit metastatic melanoma; assay: Transit metastasis melanoma case study, topical application
Description: Person with stage 4 transit metastatic melanoma with 30 melanomas on the body. Using chemotherapy infusions every 3 weeks since 2019. For 2 weeks used topical Nedocromil sodium with one dose per tumor (30) per week. […] In modern medicine the goal is to shrink a tumor, but the tumor never resolves. […] The patient was treated with Nedocromil Sodium on all 30 tumors in one sitting.

T1 sequence (Q9HC97 whole entry): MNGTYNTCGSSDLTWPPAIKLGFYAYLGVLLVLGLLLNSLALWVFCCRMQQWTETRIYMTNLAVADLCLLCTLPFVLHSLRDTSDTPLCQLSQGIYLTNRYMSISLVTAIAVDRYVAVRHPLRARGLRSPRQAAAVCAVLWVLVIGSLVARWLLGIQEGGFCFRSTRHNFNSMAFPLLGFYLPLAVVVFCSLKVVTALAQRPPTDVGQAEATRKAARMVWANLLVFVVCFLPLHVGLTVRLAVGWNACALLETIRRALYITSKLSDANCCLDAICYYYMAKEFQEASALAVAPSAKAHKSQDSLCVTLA

SMILES: CCCc1c2oc(C(=O)[O-])cc(=O)c2cc2c(=O)cc(C(=O)[O-])n(CC)c12.[Na+].[Na+] [Nedocromil Sodium, 4H-Pyrano[3,2-g]quinoline-2,8-dicarboxylic acid, 9-ethyl-6,9-dihydro-4,6-dioxo-10-propyl-, disodium salt]
- EC50 ([1]; CHO-K1 cell line stably expressing human GPR35 and β-arrestin): 2980 ± 1270 nM
- agonism of GPR 35 ([1]; PathHunter β-arrestin-2 interaction assay): potent full agonist
- dose dependence of ion channel block [2]: dose-dependent manner
- mast cell degranulation in the tumor microenvironment ([3]; compared with saline-treated control group): inhibited
- mean tumor size ([3]; end time point (day 50) after treatment, saline group 31.3): 5.2 mm^3
- tumor growth ([3]; treated mice vs. saline control at day 42 after treatment, P<0.001): significantly suppressed
- tumor growth [4]: significantly suppressed
- tumor change ([5]; 8 week mark after second topical application): no tumor was able to be felt
- tumor change ([5]; roughly 6 weeks after second topical application): noticeably smaller
- number of tumors dissolved ([6]; after 2nd topical treatment): 17 OF THE 30 TUMORS
- tumor change ([6]; after one topical treatment, 30 tumors): the tumors have flattened
- side effects ([6]; all 30 tumors treated in one sitting): no side effects
